≈ marks a conversion by molar mass, not a printed value. Bounds are passed on as bounds.

Series [1] concerns F2002 cell line. The experiment in a line: Inhibitory activity against human cytomegalo virus (WFI strain) in a plaque reduction assay in flow 2002 human fibroblast cells. The class given is functional, cell-based. In general terms: Plaques are areas of infected cells; plaque reduction assays count them against a control.
Series [2] is described as follows: Cytotoxicity in Flow 2002 cell line. The note with it: human, Flow 2002 cells. The class given is cell-based.
The test system of series [3] is Vero. The experiment in a line: Inhibitory activity against Herpes Simplex virus type 1 (186 strain) in a Plaque reduction Assay in vero cells. The class given is functional, cell-based. The note with it: Chlorocebus sabaeus.
Series [4] concerns Vero. The experiment in a line: Inhibitory activity against Herpes Simplex virus type 1 (KOS strain) in a Plaque reduction Assay in vero cells. The note with it: Chlorocebus sabaeus. The class given is functional, cell-based.
Series [5] concerns Vero. The experiment in a line: Cytotoxicity in Vero cell line. The class given is functional. To be noted: Chlorocebus sabaeus.

A word on the IC50: it is the concentration that inhibits the measured activity by half. Higher therefore signals lower potency. By CC50 is commonly meant the concentration at which the toxic effect on the cells reaches its halfway point. A lower CC50 goes with greater toxicity to the cells. `O=c1[nH]c(=O)n([C@H]2CO[C@@H](CO)O2)cc1/C=C/Br`: the IC50 in series [1] is greater than 100 µg/mL; in series [3], greater than 30 µg/mL; in series [4], greater than 30 µg/mL. In addition, the cytotoxic concentration (CC50) in series [2] was greater than 100 µg/mL; in series [5], 100 µg/mL (≈ 313 µM).
In the case of `O=c1[nH]c(=O)n([C@@H]2CO[C@H](CO)O2)cc1/C=C/Br`, the half-inhibitory concentration (IC50) in series [1] is 5 µg/mL (≈ 15.7 µM); in series [3] it was greater than 30 µg/mL; in series [4], 0.3 µg/mL (≈ 0.94 µM). In addition, the CC50 in series [2] is 30 µg/mL (≈ 94 µM); in series [5], 100 µg/mL (≈ 313 µM).
Taken in the same sequence, the figures for `O=c1[nH]c(=O)n([C@H]2CO[C@H](CO)O2)cc1/C=C/Br` were greater than 30 µg/mL, greater than 30 µg/mL, 3.4 µg/mL (≈ 10.7 µM), 30 µg/mL (≈ 94 µM) and 100 µg/mL (≈ 313 µM).
As to `O=c1[nH]c(=O)n([C@@H]2CO[C@H](CO)S2)cc1/C=C/Br`, the IC50 in series [1], in series [3] and in series [4] was greater than 100 µg/mL in each case. Further, the CC50 in series [2] is 100 µg/mL (≈ 298 µM); in series [5] it was greater than 100 µg/mL.
Turning to `O=c1[nH]c(=O)n([C@H]2CO[C@H](CO)S2)cc1/C=C/Br`, the concentration for half-maximal inhibition (IC50) in series [1] was greater than 100 µg/mL; in series [3], 30 µg/mL (≈ 89.5 µM); in series [4], greater than 30 µg/mL. For the same compound, the CC50 is greater than 100 µg/mL in series [2] and 100 µg/mL (≈ 298 µM) in series [5].
On to `O=c1[nH]c(=O)n([C@H]2CO[C@@H](CO)S2)cc1/C=C/Br`, for which the IC50 in series [1] was greater than 100 µg/mL; in series [3], 2.9 µg/mL (≈ 8.65 µM); in series [4] it was greater than 30 µg/mL. The CC50 in series [2] and in series [5] was 100 µg/mL (≈ 298 µM) each time.
With `O=c1[nH]c(=O)n([C@@H]2CO[C@@H](CO)O2)cc1/C=C/Br`, the IC50 in series [1] was 25 µg/mL (≈ 78.3 µM); in series [3] it was greater than 30 µg/mL; in series [4], greater than 30 µg/mL. Moreover, the CC50 in series [2] and in series [5] was 100 µg/mL (≈ 313 µM) each time.
As to `Nc1nc2c(ncn2COCCO)c(=O)[nH]1` [ACYCLOVIR], the IC50 in series [3] was 0.5 µg/mL (≈ 2.22 µM); in series [4] it was 0.1 µg/mL (≈ 0.444 µM). In series [5], this compound showed a CC50 greater than 10 µg/mL.
Regarding `O=c1[nH]c(=O)n([C@@H]2CO[C@@H](CO)S2)cc1/C=C/Br`, the IC50 in series [1] was 80 µg/mL (≈ 239 µM); in series [3], greater than 10 µg/mL; in series [4] it was greater than 10 µg/mL. The CC50 in series [2] was found to be 100 µg/mL (≈ 298 µM); in series [5], 30 µg/mL (≈ 89.5 µM).
For the compound `Nc1nc2c(ncn2COC(CO)CO)c(=O)[nH]1` [GANCICLOVIR], the half-maximal inhibitory concentration (IC50) in series [1] worked out at 0.1 µg/mL (≈ 0.392 µM). The compound further returned a 50% cytotoxic concentration (CC50) in series [2] greater than 100 µg/mL.

(Values after ChEMBL document CHEMBL1151552, “Inhibitory activities of herpes simplex viruses type 1 and 2 and human cytomegalovirus by stereoisomers of 2-deoxy-3-oxa-5(E)-(2-bromovinyl)uridines and their 4-thio analogues” (Bioorg Med Chem Lett, 1994).)
